Data set [1] can be described thus: AUC(0 to infinity) in rat plasma at 10 mg/kg, po after 15 mins to 24 hrs. In kind it is ADME, organism-based. More on the design: dose 10 mg/kg, route oral, time infinity.
The target of data set [2] is T1, Nuclear receptor subfamily 1 group I member 2 (Homo sapiens, UniProt O75469).
T1 sequence (O75469 whole entry): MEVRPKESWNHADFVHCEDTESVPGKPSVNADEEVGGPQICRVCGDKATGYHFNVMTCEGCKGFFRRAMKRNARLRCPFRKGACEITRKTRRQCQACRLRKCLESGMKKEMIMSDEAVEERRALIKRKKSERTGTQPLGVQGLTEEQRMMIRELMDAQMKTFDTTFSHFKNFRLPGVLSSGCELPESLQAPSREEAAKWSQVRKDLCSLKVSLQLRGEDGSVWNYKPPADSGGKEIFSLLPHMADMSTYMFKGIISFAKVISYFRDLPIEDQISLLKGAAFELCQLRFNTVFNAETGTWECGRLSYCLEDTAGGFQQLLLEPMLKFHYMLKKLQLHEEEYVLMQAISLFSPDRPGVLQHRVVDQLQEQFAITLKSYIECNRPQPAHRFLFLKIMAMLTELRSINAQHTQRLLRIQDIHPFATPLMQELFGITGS
As to the kind of experiment: Induction of human PXR assessed as CYP450 activation. It counts as ADME.

A short description of data set [3]: Protein binding in ICR mouse brain at 30 mg/kg, po after 1 hr by LC/MS/MS analysis. It counts as ADME, organism-based. The note with it: read-out: PB (converted).
The nature of data set [4]: Half life in rat plasma at 1 mg/kg, iv after 5 mins to 24 hrs. In kind it is ADME, organism-based.
For the next data set, the system named is Mus musculus. As to the kind of experiment: Antidepressant activity in CD1(ICR) mouse assessed as decrease in immobility time at 30 mg/kg, po after 1 hr by tail suspension test. In kind it is functional, organism-based.
In another data set the target is P-gp (ABCB1) (Homo sapiens, UniProt P08183). The data set can be described thus: Substrate activity at P-gp (unknown origin) assessed as efflux ratio. In kind it is ADME. The note with it: not told.
Chain of P-gp (ABCB1) (P08183 whole entry): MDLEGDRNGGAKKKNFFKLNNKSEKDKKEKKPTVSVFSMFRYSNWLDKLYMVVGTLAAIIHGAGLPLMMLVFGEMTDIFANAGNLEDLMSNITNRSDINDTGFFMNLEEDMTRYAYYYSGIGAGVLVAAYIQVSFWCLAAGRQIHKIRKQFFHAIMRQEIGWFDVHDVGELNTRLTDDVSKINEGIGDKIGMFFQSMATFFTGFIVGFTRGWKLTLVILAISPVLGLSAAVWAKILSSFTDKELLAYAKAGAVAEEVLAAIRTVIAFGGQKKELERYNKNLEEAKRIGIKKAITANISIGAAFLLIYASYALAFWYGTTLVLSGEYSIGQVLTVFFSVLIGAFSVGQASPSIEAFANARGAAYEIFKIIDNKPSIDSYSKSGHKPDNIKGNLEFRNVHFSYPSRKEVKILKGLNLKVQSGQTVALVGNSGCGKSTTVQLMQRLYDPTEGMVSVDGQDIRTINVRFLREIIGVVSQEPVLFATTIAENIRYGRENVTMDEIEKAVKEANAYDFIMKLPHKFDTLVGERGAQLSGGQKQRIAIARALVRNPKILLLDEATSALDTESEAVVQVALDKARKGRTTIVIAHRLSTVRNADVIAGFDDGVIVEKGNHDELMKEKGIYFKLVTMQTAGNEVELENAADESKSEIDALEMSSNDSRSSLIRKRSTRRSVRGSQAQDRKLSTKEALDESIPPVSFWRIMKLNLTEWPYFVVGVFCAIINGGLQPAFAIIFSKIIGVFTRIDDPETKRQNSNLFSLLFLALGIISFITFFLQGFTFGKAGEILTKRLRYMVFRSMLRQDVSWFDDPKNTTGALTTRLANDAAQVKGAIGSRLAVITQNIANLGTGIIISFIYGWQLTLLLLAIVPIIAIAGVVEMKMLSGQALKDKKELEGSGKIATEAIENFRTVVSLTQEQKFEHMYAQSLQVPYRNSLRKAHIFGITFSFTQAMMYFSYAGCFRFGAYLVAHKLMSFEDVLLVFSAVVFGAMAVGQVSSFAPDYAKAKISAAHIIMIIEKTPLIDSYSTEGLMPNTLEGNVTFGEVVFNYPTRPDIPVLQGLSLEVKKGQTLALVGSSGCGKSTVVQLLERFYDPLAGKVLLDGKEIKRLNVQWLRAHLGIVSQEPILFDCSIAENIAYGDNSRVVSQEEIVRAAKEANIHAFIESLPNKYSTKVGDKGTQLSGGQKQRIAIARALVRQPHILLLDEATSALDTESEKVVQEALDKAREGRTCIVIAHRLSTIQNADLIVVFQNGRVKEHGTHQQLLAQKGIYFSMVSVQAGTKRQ
The next data set concerns the target T2, Cytochrome P450 1A2 (Homo sapiens, UniProt P05177).
T2 sequence (P05177 whole entry): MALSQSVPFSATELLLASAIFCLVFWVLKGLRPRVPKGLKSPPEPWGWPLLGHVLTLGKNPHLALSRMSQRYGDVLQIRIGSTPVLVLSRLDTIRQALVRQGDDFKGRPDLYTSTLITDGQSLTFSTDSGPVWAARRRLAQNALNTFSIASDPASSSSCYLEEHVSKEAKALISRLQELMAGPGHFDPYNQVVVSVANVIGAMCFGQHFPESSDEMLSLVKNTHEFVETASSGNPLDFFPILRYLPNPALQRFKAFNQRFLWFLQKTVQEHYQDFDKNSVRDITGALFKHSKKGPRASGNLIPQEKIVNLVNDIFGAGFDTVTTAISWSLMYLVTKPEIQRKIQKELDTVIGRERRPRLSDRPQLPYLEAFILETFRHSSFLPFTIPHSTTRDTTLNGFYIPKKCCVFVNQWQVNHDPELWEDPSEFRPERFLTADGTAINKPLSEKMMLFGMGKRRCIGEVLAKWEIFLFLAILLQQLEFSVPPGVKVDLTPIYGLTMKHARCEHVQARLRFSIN
As to the kind of experiment: Inhibition of CYP1A2 in human liver microsomes using phenacetin as substrate after 10 mins in presence of NADPH by LC/MS/MS analysis. It counts as ADME. Background: Liver microsomes are a subcellular fraction often used to study metabolism.

For another data set, the target named is Cytochrome P450 3A4 (Homo sapiens, UniProt P08684). As to the kind of experiment: Inhibition of CYP3A4 in human liver microsomes using midazolam as substrate after 10 mins in presence of NADPH by LC/MS/MS analysis. In kind it is ADME.
Chain of Cytochrome P450 3A4 (P08684 whole entry): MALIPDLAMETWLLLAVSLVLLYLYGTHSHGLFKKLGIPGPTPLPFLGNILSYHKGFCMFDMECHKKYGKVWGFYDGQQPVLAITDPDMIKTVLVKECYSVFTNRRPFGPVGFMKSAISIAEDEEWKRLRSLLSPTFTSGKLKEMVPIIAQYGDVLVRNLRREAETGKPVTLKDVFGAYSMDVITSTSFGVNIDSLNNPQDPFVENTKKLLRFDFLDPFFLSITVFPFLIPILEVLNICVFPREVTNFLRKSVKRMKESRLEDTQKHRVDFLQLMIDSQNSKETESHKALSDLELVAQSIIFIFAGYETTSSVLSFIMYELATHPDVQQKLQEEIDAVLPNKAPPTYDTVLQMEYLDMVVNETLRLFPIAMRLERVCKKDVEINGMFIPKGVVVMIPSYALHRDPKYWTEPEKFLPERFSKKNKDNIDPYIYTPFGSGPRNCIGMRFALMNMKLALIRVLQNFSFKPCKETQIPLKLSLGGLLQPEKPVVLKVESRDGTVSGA
Data set [5] in a line: Ratio of drug level in brain to plasma in ICR mouse at 30 mg/kg, po after 1 hr by LC/MS/MS analysis. In kind it is ADME, organism-based. The note with it: read-out: BPR.
The nature of data set [6]: Volume of distribution in steady state in rat plasma at 1 mg/kg, iv after 5 mins to 24 hrs. In kind it is ADME, organism-based. The note with it: read-out: Vdss.
The nature of data set [7]: Metabolic stability in human liver microsomes assessed as compound remaining at 1 uM after 30 mins in presence of NADPH by LC/MS/MS analysis. In kind it is ADME, Microsome. The note with it: read-out: Stability.
Data set [8] is described as follows: AUC(0 to infinity) in rat plasma at 1 mg/kg, iv after 5 mins to 24 hrs. It counts as ADME, organism-based. Further details: dose 1 mg/kg, route intravenous, time infinity.
The target of data set [9] is Metabotropic glutamate receptor 5 (Homo sapiens, UniProt P41594). The data set can be described thus: Negative allosteric modulation of human recombinant mGluR5 expressed in HEK293 cells assessed as L-glutamate-induced intracellular calcium mobilization incubated for 20 mins before L-glutamate addition. It counts as functional, cell-based. For orientation: Calcium flux is commonly read through the fluorescence of an indicator in the cells.
Chain of Metabotropic glutamate receptor 5 (P41594 whole entry): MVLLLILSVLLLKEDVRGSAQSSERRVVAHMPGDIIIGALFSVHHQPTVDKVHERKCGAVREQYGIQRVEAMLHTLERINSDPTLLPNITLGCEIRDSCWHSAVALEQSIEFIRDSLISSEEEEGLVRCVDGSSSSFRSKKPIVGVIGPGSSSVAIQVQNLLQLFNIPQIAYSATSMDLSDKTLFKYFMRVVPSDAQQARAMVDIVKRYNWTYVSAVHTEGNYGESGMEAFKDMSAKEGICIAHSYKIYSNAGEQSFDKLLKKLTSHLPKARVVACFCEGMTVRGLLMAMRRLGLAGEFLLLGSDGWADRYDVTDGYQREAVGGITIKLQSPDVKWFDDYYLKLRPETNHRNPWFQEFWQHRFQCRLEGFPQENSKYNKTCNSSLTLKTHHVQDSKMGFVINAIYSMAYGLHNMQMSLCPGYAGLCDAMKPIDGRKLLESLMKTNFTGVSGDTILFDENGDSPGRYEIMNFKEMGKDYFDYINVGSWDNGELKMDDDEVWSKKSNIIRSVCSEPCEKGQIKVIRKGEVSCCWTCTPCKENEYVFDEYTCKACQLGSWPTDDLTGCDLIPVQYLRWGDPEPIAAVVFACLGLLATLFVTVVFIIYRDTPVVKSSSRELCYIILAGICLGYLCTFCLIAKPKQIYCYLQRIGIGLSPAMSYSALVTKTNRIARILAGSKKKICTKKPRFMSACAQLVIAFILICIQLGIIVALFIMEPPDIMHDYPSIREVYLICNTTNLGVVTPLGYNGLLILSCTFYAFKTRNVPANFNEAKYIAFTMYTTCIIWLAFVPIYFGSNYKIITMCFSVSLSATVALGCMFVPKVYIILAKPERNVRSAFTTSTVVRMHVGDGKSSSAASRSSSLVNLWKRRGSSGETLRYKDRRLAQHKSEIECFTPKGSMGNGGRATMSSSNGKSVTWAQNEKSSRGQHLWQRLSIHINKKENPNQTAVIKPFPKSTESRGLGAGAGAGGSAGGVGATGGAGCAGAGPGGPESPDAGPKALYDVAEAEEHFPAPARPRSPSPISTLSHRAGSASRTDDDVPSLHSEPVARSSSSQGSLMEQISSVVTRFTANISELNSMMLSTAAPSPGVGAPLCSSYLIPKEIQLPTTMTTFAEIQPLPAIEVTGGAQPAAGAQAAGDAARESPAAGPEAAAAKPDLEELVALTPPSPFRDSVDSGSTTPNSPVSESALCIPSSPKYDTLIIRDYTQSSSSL

Data set [10] can be described thus: Unbound drug concentration in ICR mouse brain at 30 mg/kg, po after 1 hr by LC/MS/MS analysis. In kind it is ADME, organism-based. The note with it: in vivo.
Data set [11] deals with T3, Aryl hydrocarbon receptor (Homo sapiens, UniProt P35869).
T3 sequence (P35869 whole entry): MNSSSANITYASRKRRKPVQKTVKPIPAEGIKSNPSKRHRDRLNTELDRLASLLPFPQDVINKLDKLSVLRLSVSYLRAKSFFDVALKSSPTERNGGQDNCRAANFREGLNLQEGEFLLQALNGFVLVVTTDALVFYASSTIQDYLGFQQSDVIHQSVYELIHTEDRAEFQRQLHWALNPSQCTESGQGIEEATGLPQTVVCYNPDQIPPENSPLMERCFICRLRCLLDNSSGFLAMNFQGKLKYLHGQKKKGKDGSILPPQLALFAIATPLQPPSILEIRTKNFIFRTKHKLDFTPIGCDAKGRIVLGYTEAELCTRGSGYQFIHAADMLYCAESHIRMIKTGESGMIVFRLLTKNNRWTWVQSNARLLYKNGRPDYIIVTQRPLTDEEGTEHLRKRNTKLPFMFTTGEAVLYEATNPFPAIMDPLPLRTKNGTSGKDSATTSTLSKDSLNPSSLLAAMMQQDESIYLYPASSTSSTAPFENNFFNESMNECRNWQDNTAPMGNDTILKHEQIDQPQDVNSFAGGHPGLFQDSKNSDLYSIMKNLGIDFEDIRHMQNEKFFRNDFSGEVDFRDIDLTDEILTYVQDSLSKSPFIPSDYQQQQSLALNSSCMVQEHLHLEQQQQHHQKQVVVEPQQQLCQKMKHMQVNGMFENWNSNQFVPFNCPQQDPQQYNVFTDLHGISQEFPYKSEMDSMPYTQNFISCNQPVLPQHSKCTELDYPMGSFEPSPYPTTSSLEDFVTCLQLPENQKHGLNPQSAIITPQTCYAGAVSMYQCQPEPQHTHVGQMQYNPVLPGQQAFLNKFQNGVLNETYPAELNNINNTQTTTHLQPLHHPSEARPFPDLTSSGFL
As to the kind of experiment: Induction of human AhR assessed as CYP450 activation. It counts as ADME.

Data set [12] in a line: Clearance in rat plasma at 1 mg/kg, iv after 5 mins to 24 hrs. In kind it is ADME, organism-based.

Each structure is given as a SMILES string. pIC50: −log10 of the molar value. Active and inactive are the calls of the source. The rule behind the calls is not given here.

Consider `O=C(c1cc(F)cc(Cl)c1)N1CCn2nc(-c3ccc(F)cn3)cc2C1`, for which the AUC(0-inf) was determined as 68700 ng·h/mL in [1] and 7220 ng·h/mL in data set [8]. Also, the Activity result in [2] and in data set [11] was “Not Active” throughout. The fraction unbound at 1 h in data set [3] is 0.05. Also, the half-life in [4] is 552 min. The outcome in the data set on Mus musculus was Active. Moreover, the efflux ratio on P-gp (ABCB1) was found to be 1.2. Also, the negative-log IC50 (pIC50) at Cytochrome P450 1A2 was < 4.40; at Cytochrome P450 3A4, < 4.40; in data set [9] it was 7.12. For the same compound, in [5], the Kp at 1 h is 1.38. Further, the Vd in data set [6] turned out to be 1.5 L/kg. The remaining at 0.5 h, 1 µM in data set [7] was > 97%. In addition, in data set [10], the “Drug uptake(free)” value was 1.38 µM. Also, the clearance in data set [12] stood at 2.3 mL/min/kg.

The term AUC(0-inf) denotes the area under the concentration-time curve extrapolated to infinity. For orientation: half-life means how long it takes for the measured level to halve. A lower half-life goes with fast loss. In general, efflux ratio refers to the permeability from basolateral to apical divided by that in the opposite direction, in the common usage. As usually defined, the pIC50 is −log10 of the IC50, conventionally taken in molar units. As a reminder, the clearance is a measure of how efficiently the substance is removed, as volume per time. Read a low clearance as inefficient removal.

The record behind these values is ChEMBL document CHEMBL4425158, “Synthesis, structure-activity relationships and biological evaluation of 4,5,6,7-tetrahydropyrazolopyrazines as metabotropic glutamate receptor 5 negative allosteric modulators” (Bioorg Med Chem Lett, 2016).
